In patent publication US10278931B2, “Composition for treatment of inflammatory bowel disease and atopic dermatitis” (INNOPHARMASCREEN INC., priority 2015, dated 2019):

Experiments:
[1] = system: balb/c mice with DNCB-induced atopic dermatitis; assay: DNCB-induced atopic dermatitis model; type: in vivo; settings: 0.1% dexamethasone
Source text: (5) Reverse transcription-polymerase chain reaction (RT-PCR) quantitative real time PCR: Total RNA was isolated from cells and tissues, and cDNA was synthesized using a reverse transcriptase and was then reacted with cytokine primers to be analyzed, followed by PCR and real-time PCR. The RT-PCR products were subjected to electrophoresis using 1.5% agarose gel for analysis.
A. Experimental animal: 5-week-old male BALB/c mice obtained from. Daehan Biolink (Eumseong, Chungbuk) were adapted for 2 weeks in a clean animal breeding room (small animal room #2-302) at Hoseo University Safety Evaluation Center, set under environmental conditions: temperature of 22±3° C.; relative humidity of 50±20%; ventilation frequency of 10 to 15 times/hour, illumination for 12 hours; and illuminance of 150 Lux to 300 Lux, and then used in an experiment.
4 experimental animals were accommodated in each of polycarbonate cages (270×500×200 mm, KYERYONG SCIENCE). Feed (5053-Picolab Rodent 20, PMI Nutrition International) and drinking water (ultraviolet sterilized filtered water) were allowed to ingest freely. All procedures of the experiment were conducted after approved by the Ethics Committee of the Hoseo University Safety Evaluation Center (HTRC-15-19).
B. Dermatitis induction: Hairs on the back of each mouse were removed and maintained for 24 hours, and then 150 μl of a 1% 2,4-dinitrochlorobenzene(DNCB) solution (acetone: olive oil=3:1) was applied on the hair-removed site once a week for 3 weeks. After week 3, the DNCB solution was applied on the site twice a week for 3 weeks to induce atopic dermatitis.
C. Treatment: Mice were divided into 6 groups, and 0.5% DMSO was applied on animals as a control and 200 μl of each of 0.01 μM, 0.1 μM, and 1 μM test material was applied on animals as experimental groups for 3 weeks. 50 μl of 0.1% dexamethasone dissolved in a crude alcohol was applied on animals as a positive control at intervals of 2 days.
D. Biopsy: After application of the test material was completed, the dorsal skin of each experimental animal was incised under heart anesthesia, some of them were rapidly frozen using liquid nitrogen and stored at −70° C. before analysis, and the remainder was fixed with 10% neutral buffered formalin for 24 hours. The fixed tissues were prepared into slides through general tissue processing, and then subjected to hematoxylin & eosin (H&E) staining to measure the thickness of the epidermal layer. In addition, toluidine blue staining was performed to observe a quantitative change of mast cells. While the stained tissues were observed by an optical microscope, the thickness of the epidermal layer and the number of mast cells were obtained using an image analyzer (Olympus DP-21).
E. IgE level measurement: IgE concentration in blood was measured by (SHIBAYAGI, Japan) using serum collected when autopsy was performed. 50 μL of an IgE standard solution and the sample were placed in antibody-attached 96 wells and allowed to react for 2 hours, and then 50 μL of a biotin-conjugated anti-IgE antibody solution was added to each well and allowed to react for 2 hours. Thereafter, the resulting sample was reacted with a HRP-avidin solution for 1 hour and a chromogenic substrate (TBM) reagent for 20 minutes, and the reaction was stopped using a reaction stopper. Absorbance of the sample was measured at 450 nm using ELISA (Molecular devices Emax).

[2] = system: TSLP secretion from human mast cells (HMC-1 cells); assay: TSLP secretion ELISA in PMACI-stimulated mast cells; type: cell-based; settings: PMACI-stimulated HMC-1 cells, ELISA
Procedure: (§1) (1) Cell culture: A human mast cell line (HMC-1) was cultured in an IMDM supplemented with 10% FBS at 37° C. and 5% CO2. Candidate materials were dissolved in DMSO, and then filtered using a 0.22 μm filter. The resulting candidate materials were diluted with DMSO and the HMC-1 cells were treated therewith.
(3) Enzyme-linked immunosorbent assay (ELISA): Mast cells (3×10^6 cells/ml) were stabilized for 1 hour, and then treated with 0.1 μM, 1 μM, and 10 μM of candidate materials, followed by treatment with PMACI for 8 hours. The mast cells were centrifuged to obtain supernatants. To measure the amount of TSLP secreted from the cells, ELISA was used. The ELISA was performed in 96-well plates coated with 1 μg/well of TSLP capture Ab. The coated plates were washed twice with PBS. The cells were treated with PBS containing 10% FBS for 2 hours. Thereafter, the cells were washed with PBS containing 0.05% Tween-20 (Sigma), and recombinant TSLP was used to draw a standard curve. Subsequently, the plates were exposed to a biotinylated-TSLP antibody, Avidin peroxidase, an ARTS substrate containing 30% H2O2, and then measured at 405 nm.

HMC-1 cells = assay: Cytotoxicity (MTT-assay) in HMC-1 cells; type: cell-based, human; settings: 10 μM
Procedure: as §1
[…] After culturing, the medium was replaced by a fresh medium, 5 mg/ml of an MTT solution was then added thereto, and the mast cells were incubated at 37° C. for 4 hours. 250 DMSO was added to the mast cells, MTT formazan was extracted therefrom, and absorbance of each well was measured at 540 nm using an ELISA reader.

caspase-1 = target: T1, caspase-1 (Homo sapiens, UniProt P29466); assay: Caspase-1 assay using HMC-1 cell extracts; type: cell-based
T1 construct: a caspase-1 assay was conducted using cell extracts; endogenous in cells; host or cells: HMC-1 (human mast cells)
T1 sequence (P29466 120-297 limits assumed): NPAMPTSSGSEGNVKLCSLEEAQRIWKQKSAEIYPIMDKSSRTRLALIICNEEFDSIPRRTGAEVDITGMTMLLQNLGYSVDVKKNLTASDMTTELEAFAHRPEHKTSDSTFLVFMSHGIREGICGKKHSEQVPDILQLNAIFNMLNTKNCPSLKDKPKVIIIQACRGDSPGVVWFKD
T1 sequence (P29466 317-404 limits assumed): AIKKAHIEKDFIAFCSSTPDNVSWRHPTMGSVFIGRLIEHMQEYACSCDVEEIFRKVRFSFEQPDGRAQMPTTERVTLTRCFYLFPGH

[3] = target: T2, human recombinant caspase-1 (Homo sapiens, UniProt P29466); assay: Recombinant caspase-1 activity assay (kit); type: biochemical; settings: caspase-1 assay kit
T2 sequence (P29466 120-404): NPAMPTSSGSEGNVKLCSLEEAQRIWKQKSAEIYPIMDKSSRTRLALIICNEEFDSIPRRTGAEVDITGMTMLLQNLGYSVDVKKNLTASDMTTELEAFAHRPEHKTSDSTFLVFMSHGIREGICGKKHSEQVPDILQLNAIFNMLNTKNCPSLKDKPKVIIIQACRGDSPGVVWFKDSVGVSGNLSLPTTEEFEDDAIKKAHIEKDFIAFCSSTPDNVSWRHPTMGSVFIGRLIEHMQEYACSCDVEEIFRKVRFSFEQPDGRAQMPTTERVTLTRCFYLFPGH
Procedure: (4) Caspase-1 assay: Recombinant caspase-1 and a drug were allowed to react, and then activity measurement was performed using a caspase-1 assay kit (R&D Systems Inc., Minneapolis, Minn., USA).
Recombinant caspase-1 and a drug were allowed to react, and then activity was measured using a caspase-1 assay kit (R&D Systems Inc., Minneapolis, Minn., USA).

HaCat cells = assay: Cytotoxicity (MTT-assay) in HaCat cells; type: cell-based, human
Procedure: as §1, with “skin” for “mast”, “(HaCat cells)” for “(HMC-1)”, “RPMI containing” for “an IMDM supplemented with”, “HaCat” for “HMC-1”
(2) Cytotoxicity (MTT-assay): After stabilizing HaCat cells (3×10^5 cells/ml) for 1 hour, they were treated with candidate materials variously beginning from a concentration of 10 μM, followed by treatment with Poly (I:C) for 8 hours. Then, the medium was replaced by a fresh medium, 5 mg/ml of an MTT solution was then added thereto, and the mast cells were incubated at 37° C. for 4 hours. 250 DMSO was added to the HaCat cells, MTT formazan was extracted therefrom, and absorbance of each well was measured at 540 nm using an ELISA reader.

DSS-induced animal model = assay: DSS-induced inflammatory bowel disease (enteritis) model; type: in vivo, C57BL/6 mice
Procedure: Six-week-old female SPF (Specific pathogen-free) C57BL/6 mice were purchased from DuPont Biotech. The mice were allowed to freely ingest a feed and water after an acclimation period of 1 week in an animal room of Hoseo University Safety Evaluation Center maintained at temperature of 21±3° C., humidity of 50±20%, and light/darkness cycle of 12 h/12 h. All procedures in the present animal experiment were conducted after approved by the Animal Experimental Ethics Committee of Hoseo University (HTRC-15-19, and HTRC-16-22(2)).
Dextran sodium sulfate (cat no 160110 by Mpbio. corn) as a colitis inducer was diluted to 3% concentration in drinking water and orally administered to mice to induce enteritis. The mice were divided into 6 groups and DW was administered to the animals of a control, and 1.0 mg/kg and 10 mg/kg of the test material were orally administered to the animals of the experimental groups once a day for […]. Sulfasalazine (100 mg/kg) dissolved in crude olive oil was orally administered once a day to the animals of a positive control. In acute cases, disease progression levels were examined after 5 days of administration. In chronic cases, disease progression levels were examined 15 days and 30 days after the 5 days of administration (reference: Toxicology Reports 2 (2015) 10391045-Caryophyllene attenuates dextran sulfate sodium-induced colitis in mice via modulation of gene expression associated mainly with colon inflammation).
Body weights were measured once for 5 days or more during the test period. The measured weights were quantified as 0 point if there was no difference compared with the normal control, 1 point for weight loss rate of 15%, 2 points for 510%, 3 points for 1015%, and 4 points for >15%. Feces observation was performed to examine the incidence of diarrhea, and the results thereof were quantified as scores (0, normal stool; 1, mildly soft stool; 2, very soft stool; 3, very soft stool (no regular shape); 4, watery stool).
Rectal tissues and blood were collected from 5 individuals for each of the autopsy times. Yuhan ketamine 50® (Yuhan Corporation, Korean) and Rompun (Bayer, USA) were mixed in a ratio of 3:1, and then used to anesthetize animals via muscular injection. Each anesthetized animal was subjected to laparotomy to collect blood from the abdominal artery, and after blood collection, the abdominal artery was cut and subjected to venesection and death to collect rectal tissue. The length and weight of the collected tissue were measured to calculate weight per 1 cm of the tissue. Some of the collected tissues were used in biopsy, and some thereof were frozen in liquid nitrogen and stored at −70° C. before analysis. […]

## C[C@@H]1C[C@H]2[C@@H]3CCC4=CC(=O)C=C[C@]4(C)[C@@]3(F)[C@@H](O)C[C@]2(C)[C@@]1(O)C(=O)CO [dexamethasone, reference compound]
[1]; DNCB group 87.1±13.0, normal 24.5±10.3
  epidermal thickness: 39.9±9.4 μm
[1]; DNCB group 790.0±151.8, no statistical significance
  blood IgE level: 703.8±86.5

## COc1ccc(NS(=O)(=O)c2cccc(S(=O)(=O)c3cccc(S(=O)(=O)Nc4ccc(OC)cc4)c3)c2)cc1 [IPS-07002]
[2]
  TSLP secretion from mast cells: significantly inhibited
HMC-1 cells
  cytotoxicity (MTT-assay): did not exhibit cytotoxicity

## O=C([O-])CC(=O)NC12CC3CC(CC(C3)C1)C2.[Na+] [IPS-07003]
[2]
  TSLP secretion from mast cells: significantly inhibited
HMC-1 cells
  cytotoxicity (MTT-assay): did not exhibit cytotoxicity

## [H]/N=C(\N/C(=N/[H])Nc1ccc(Cl)cc1)NC(C)C [IPS-07004]
caspase-1
  caspase-1 activity in HMC-1 cells: inhibits
[3]
  recombinant caspase-1 activity: inhibits
HaCat cells
  cytotoxicity (MTT-assay): no cytotoxicity
DSS-induced animal model; 10 mg/kg oral, compared to DSS control
  enteritis inhibitory activity (ratio of enteric weight to enteric length, wt/cm): superior enteritis inhibitory activity
DSS-induced animal model; compared to the DSS-induced group, oral
  melena: significantly decreased
